From patent publication US12521415B2, “Accelerating repair of mucosal injury using gold(III) compounds” (University of Kentucky Research Foundation, priority 2020, dated 2026)

Legend:
[1] = test system: DSS colitis mice; experiment: DSS-induced colitis in mice treated with AuPhos; format: in vivo, mouse; settings: for colonic ulceration (tissue histology): left colon
Procedure: FIG. 9A includes results for changes with 2% DSS given for 7 days followed by water. AuPhos was started (25 mg/kg q 3D) on DAY1. Body Wt changes shown as means of each group (n=6) with SEM for 9 and 13 day trials. FIG. 9B includes results for changes with 2% DSS given for 7 days followed by water. AuPhos was started (25 mg/kg q 3D) on DAY1. Body Wt changes shown as means of each group (n=6) with SEM for 9 and 13 day trials as shown, with corresponding DAI. FIG. 9C includes results for changes with 2% DSS given for 7 days followed by water. AuPhos was started (25 mg/kg q 3D) on DAY1. Histological score in DSS-colitis mice 7 and 13 days after DSS initation. Statistical significance was determined using 2-way ANOVA with Sidak's multiple comparison test (A,B) or unpaired t-test (C). FIG. 9D includes images showing results for changes with 2% DSS given for 7 days followed by water. AuPhos was started (25 mg/kg q 3D) on DAY1. Representative images of H&E staining of whole tissue scan from 13-day study. ★★<0.01, ★★★<0.0001.
FIG. 12A RT-qPCR analysis of cytokines and chemokine genes in AuPhos vs. controls at 9 and 13 days after DSS initiation. FIG. 12B RT-qPCR analysis of cytokines and chemokine genes in AuPhos vs. controls at 9 and 13 days after DSS initiation. FIG. 12C Quantitative RT-PCR analysis of inflammasome markers in D13 DSS mice. Statistical significance was determined using multiple t-test with Holm-Sidak's multiple method. FIG. 12D Serum IL-6 in AuPhos treated (n=4) and control mice, with or without anti-CD3 antibody. ★<0.05; ★★<0.01.
FIGS. 17A-17F illustrate that AuPhos improves DSS-induced colitis. Results shown are for changes with 2% DSS given for 7 days followed by water. AuPhos was started (25 mg/kg q3D) on DAY1. FIG. 17A. Body Wt changes shown as means of each group (n=6) with SEM for 15 day trial as shown, with FIG. 17B. corresponding DAI. FIG. 17C. Histological score in DSS-colitis mice after Day−7, −11, −13, and −15 of DSS initiation. Statistical significance was determined using 2-way ANOVA with Sidak's multiple comparison test (A,B) or unpaired t-test (C) FIG. 17D. Representative images of H&E staining of whole tissue scan from 13-day study. E. Effect of AuPhos on intestinal permeability using FITC-dextran in DSS-colitis mice (n=5) in a separate D7, D9, D11, D13 and D15 experiment. F. RT-qPCR analysis of cytokines and chemokines genes in AuPhos vs. vehicle treated DSS colitis mice from 9-day, 13-day and 15-day studies. ß<0.05, ßß<0.01, ßßß<0.0001.
Given the potential that AuPhos provides a novel approach to IBD therapy, DSS colitis mice were given (2% DSS×7D) 25 mg/kg i.g. AuPhos every 3 days (from the start of DSS) until sacrifice.
Findings in FIG. 9A-9D indicate that AuPhos attenuates tissue inflammation and enhances mucosal healing in DSS colitis mice. To interrogate the effects of AuPhos on Th1 and Treg cytokine production as well as chemokine and inflammasome mediators, mRNA from mice at time points indicated (as in FIG. 9A-9D). […] To test the question of whether AuPhos affected leukocytes directly, control and AuPhos-treated (25 mg/kg i.g. dosed every 3d×2) were injected with anti-CD3 mAb (antiTCR mAb). It is known that CD3 mAb induces a cytokine storm in the periphery and intestine.
The efficacy of AuPhos in the treatment of colitis. Given the potential that AuPhos provides a novel approach to IBD therapy, DSS colitis mice (2% DSS×7D) were given intragastric (i.g.) AuPhos (25 mg/kg) every 3 days (from the start of DSS) until sacrifice.

[2] = test system: normal human colonic biopsies; experiment: Western blot of human colonic biopsies incubated with AuPhos; format: cell-based
Procedure: FIG. 14A Normal human colonic biopsies were incubated a^t 4° C. with AuPhos×3 hrs and membrane fractions examined for mitochondrial complexes expression by WB. FIG. 14B TNF-stimulated colonic NCM460 cells were treated overnight with AuPhos at concentrations indicated. WB for markers indicated are shown in nuclear and membranous protein fractions. FIG. 14C Markers of PI3K pathway were probed in nuclear and cytosolic fractions of AuPhos-treated NCM460 cells (treated with TNF). FIG. 14D NCM460 cell were treated overnight with TNF and probed for the ROS-induced P-PTEN, which inactivates PTEN and activates PI3K.
Control or DSS colitis mice were gavaged with vehicle (−) or AuPhos (+) (as in FIG. 2) and sacrificed on D14. WB of isolated IEC proteins indicated are shown in nuclear and membranous protein fractions along with densitometry. (#mice=4 for each condition). *p<0.04. FIG. 16E. Normal human colonic biopsies were incubated at 4° C. with AuPhos×3 hrs. Membranous and nuclear fractions examined for indicated proteins by WB.
The effects of AuPhos in Px-accelerated IL-10KO mice by beginning treatment on D21 (7D after cessation of Px) when colitis is severe is shown in FIG. 13A. AuPhos-induced mitochondrial biogenesis and PI3K signaling. […]

[3] = 2% DSS x7D, 25 mg/kg i.g. every 3 days, 9 and 13 day trials
[4] = 2% DSS x7D, 25 mg/kg i.g. every 3 days, 15 day trial
[5] = DSS colitis mice, 9 and 13 days after DSS initiation, RT-qPCR

## [Cl][Au]1([c]2ccccc2Cc2ccccn2)[P](c2ccccc2)(c2ccccc2)c2ccccc2[P]1(c1ccccc1)c1ccccc1 [AuPhos]
[1]; [3]
  DAI: significantly reduces
  weight (Wt) loss: significantly reduces
[1]; 2% DSS x7D, 25 mg/kg i.g. every 3 days, 13-day study
  colonic ulceration (tissue histology): resolution of colonic ulceration throughout the left colon
[1]; [4]
  disease activity index (DAI): significantly reduces
  weight (Wt) loss: significantly reduces
[1]; 2% DSS x7D, 25 mg/kg i.g. every 3 days, at 13D
  tissue histologic indices (colitis score): significant decreases
[1]; 2% DSS x7D, 25 mg/kg i.g. every 3 days, at D11, 13 and 15
  tissue histology indices (colitis score): significant decreases
[1]; 15 day trial series
  colonic ulceration (tissue histology): resolution of colonic ulceration throughout the left colon
[1]; D13 DSS mice, RT-PCR
  markers of inflammasome signaling mRNA: reduces
[1]; DSS colitis mice, 9-day, 13-day and 15-day studies, RT-qPCR
  pro-inflammatory cytokine mRNA and chemokine-mediators of colitis (mucosal mRNA): reduces
[1]; [5]
  chemokine-mediators of colitis mRNA (MCP-1, I-TAC and IP-10): reduces
  pro-inflammatory cytokine mRNA (IFNγ, TNF, IL-6 and IL-10): reduces
[1]; DSS mice
  acute colitis: attenuates acute colitis
[2]; fresh human biopsies, dose range of AuPhos, after 3 h, WB
  mitochondrial complex levels: rapid increased in complexes
[2]; human biopsies, 4° C., AuPhos x3 hrs, WB (FIG. 16E)
  mitochondrial complex levels and downstream signaling: increases mitochondrial complex levels and downstream signaling
